Test results as given in patent publication US20070275961A1, “Triazolo ' 1, 5-A ! Pyrimidines and Their Use in Medicine” (VERNALIS (CAMBRIDGE) LIMITED., priority 2003, published 2007).
Like-named read-outs stand apart in the source and are kept apart here.

Key:
Type in all cases: biochemical
[1] = molecular target: T1, PDK1 enzyme (Homo sapiens, UniProt O15530); test: PDK1 3'-phosphoinositide-dependent kinase assay, phosphorylation of synthetic peptide (33P-ATP filtration); conditions: 0.01 mM ATP, read-out: PDK1 IC50
T1 sequence (O15530 1-556): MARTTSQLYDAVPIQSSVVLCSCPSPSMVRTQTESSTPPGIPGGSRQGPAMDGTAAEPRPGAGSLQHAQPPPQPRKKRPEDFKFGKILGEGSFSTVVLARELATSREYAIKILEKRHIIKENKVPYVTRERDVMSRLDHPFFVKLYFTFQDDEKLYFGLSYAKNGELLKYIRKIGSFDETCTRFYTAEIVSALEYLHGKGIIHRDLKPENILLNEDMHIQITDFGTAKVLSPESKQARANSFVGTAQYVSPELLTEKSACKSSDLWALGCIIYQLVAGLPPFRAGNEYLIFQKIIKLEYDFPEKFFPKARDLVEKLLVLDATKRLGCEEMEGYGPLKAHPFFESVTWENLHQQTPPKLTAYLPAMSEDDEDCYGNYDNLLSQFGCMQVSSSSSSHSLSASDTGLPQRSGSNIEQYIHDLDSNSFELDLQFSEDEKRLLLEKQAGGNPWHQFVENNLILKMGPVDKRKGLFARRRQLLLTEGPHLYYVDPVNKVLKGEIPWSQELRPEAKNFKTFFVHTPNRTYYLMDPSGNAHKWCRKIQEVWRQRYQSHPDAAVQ
Summary of the method: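 Radiometric peptide phosphorylation by PDK1 with inhibitor, 60 min at 30 °C, using 0.01 mM ATP plus 33P-γ-ATP, 0.075 mM peptide, 7.5 mM Mg acetate in Tris-HCl pH 7.5. Phosphoric acid stopped reaction; phosphorylated peptide captured on filter plates and counted by scintillation.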

[2] = molecular target: T2, Chk1 (Homo sapiens, UniProt O14757); test: Chk1 kinase assay, phosphorylation of Chktide (33P-ATP filtration); conditions: 0.01 mM ATP, read-out: Chk1 IC50
T2 sequence (O14757 1-476): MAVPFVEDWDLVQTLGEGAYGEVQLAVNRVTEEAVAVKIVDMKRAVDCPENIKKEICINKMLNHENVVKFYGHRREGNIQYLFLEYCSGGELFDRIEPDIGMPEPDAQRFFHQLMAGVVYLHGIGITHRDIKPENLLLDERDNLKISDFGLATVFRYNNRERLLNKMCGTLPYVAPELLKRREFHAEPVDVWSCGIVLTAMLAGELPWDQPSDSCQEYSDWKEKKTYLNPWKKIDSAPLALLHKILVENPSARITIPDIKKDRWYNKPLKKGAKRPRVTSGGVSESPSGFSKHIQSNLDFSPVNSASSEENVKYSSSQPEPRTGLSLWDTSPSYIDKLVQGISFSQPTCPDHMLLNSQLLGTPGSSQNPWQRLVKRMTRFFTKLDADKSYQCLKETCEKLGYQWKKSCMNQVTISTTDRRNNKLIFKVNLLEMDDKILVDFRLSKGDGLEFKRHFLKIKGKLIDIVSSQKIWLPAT
Summary of the method: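 GST-Chk1 (11 nM) with inhibitor, 30 μM Chktide peptide, 0.01 mM ATP plus 33P-γ-ATP in 50 mM Hepes pH 7.5 with 0.1 mg/ml BSA, 40 min at 30° C. Stopped with phosphoric acid; phosphorylated peptide captured on filter plates and scintillation-counted.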

[3] = molecular target: CDK2 enzyme, complexed with cyclin A (Homo sapiens, UniProt P24941); test: CDK2 cyclin dependent kinase assay, phosphorylation of synthetic peptide […] (33P-ATP filtration); conditions: 0.1 mM ATP

IC50 ([1]; Table 3) [µM] | IC50 ([2]; Table 3) [µM] | IC50 ([3]; Table 3) [µM] | IC50 ([1]; Table 4) [µM] | IC50 ([2]; Table 4) [µM] | IC50 ([3]; Table 4) [µM] | SMILES
4.08 | 14.9 | > 200 | – | – | – | Cc1cccc(-c2cc(Nc3ccc(C(N)=O)cc3)nc3ncnn23)c1 [Example 104]
6.1 | 5.45 | > 200 | – | – | – | CCN(CC)CCNC(=O)c1ccc(Nc2cc(-c3cccc(C)c3)n3ncnc3n2)cc1 [Example 105]
23.2 | 63.3 | > 200 | – | – | – | Cc1cccc(-c2cc(Nc3ccc(N4CCOCC4)cc3)nc3ncnn23)c1 [Example 106]
14.7 | 42.2 | > 200 | – | – | – | Cc1cccc(-c2cc(Nc3ccc(CCO)cc3)nc3ncnn23)c1 [Example 107]
66.8 | 36.8 | > 200 | – | – | – | Cc1cccc(-c2cc(Nc3ccc(N(C)C)cc3)nc3ncnn23)c1 [Example 108]
36 | 6.7 | > 200 | – | – | – | Cc1cccc(-c2cc(Nc3ccc(N4CCN(C)CC4)cc3)nc3ncnn23)c1 [Example 109]
52.2 | 9.57 | > 200 | – | – | – | OCCc1ccc(Nc2cc(-c3cccc(F)c3)n3ncnc3n2)cc1 [Example 111]
51.6 | > 200 | 119 | – | – | – | N#Cc1ccc(Nc2cc(-c3cccc(F)c3)n3ncnc3n2)cc1 [Example 112]
46.5 | 5.62 | > 200 | – | – | – | Fc1cccc(-c2cc(Nc3ccc(N4CCOCC4)cc3)nc3ncnn23)c1 [Example 113]
> 200 | 6.42 | > 200 | – | – | – | Cc1cc(Nc2ccc(C(N)=O)cc2)nc2ncnn12 [Example 114]
> 200 | 83.7 | 148 | – | – | – | CC(C)c1cc(Nc2ccc(C(N)=O)cc2)nc2ncnn12 [Example 115]
5.11 | 9.82 | 97.5 | – | – | – | NC(=O)c1ccc(Nc2cc(-c3ccccc3)n3ncnc3n2)cc1 [Example 116]
7.3 | 3.05 | > 200 | – | – | – | NC(=O)c1ccc(Nc2cc(-c3cccc(F)c3)n3ncnc3n2)cc1 [Example 117]
6.28 | 1.54 | 116 | – | – | – | NS(=O)(=O)c1ccc(Nc2cc(-c3cccc(F)c3)n3ncnc3n2)cc1 [Example 118]
115 | 2.58 | > 200 | – | – | – | CS(=O)(=O)c1ccc(Nc2cc(-c3cccc(F)c3)n3ncnc3n2)cc1 [Example 119]
> 200 | 0.82 | > 200 | – | – | – | CCN(CC)CCNC(=O)c1ccc(Nc2cc(C)n3ncnc3n2)cc1 [Example 120]
15.4 | 2.25 | > 200 | – | – | – | CCN(CC)CCNC(=O)c1ccc(Nc2cc(-c3ccccc3)n3ncnc3n2)cc1 [Example 121]
> 200 | 22.9 | > 200 | – | – | – | CCN(CC)CCNC(=O)c1ccc(Nc2cc(C(C)C)n3ncnc3n2)cc1 [Example 122]
> 200 | 31.4 | > 200 | – | – | – | NC(=O)c1ccc(Nc2cc(Cc3ccccc3)n3ncnc3n2)cc1 [Example 123]
> 200 | 15.8 | > 200 | – | – | – | CCN(CC)CCNC(=O)c1ccc(Nc2cc(Cc3ccccc3)n3ncnc3n2)cc1 [Example 124]
> 200 | 37.4 | > 200 | – | – | – | CCN(CC)CCNC(=O)c1ccc(Nc2cc(Cc3ccccc3OC)n3ncnc3n2)cc1 [Example 125]
> 200 | 106 | > 200 | – | – | – | COc1ccc(OC)c(Cc2cc(Nc3ccc(C(N)=O)cc3)nc3ncnn23)c1 [Example 127]

IC50 ([1]; Table 3) [µM] | IC50 ([2]; Table 3) [µM] | IC50 ([3]; Table 3) [µM] | IC50 ([1]; Table 4) [µM] | IC50 ([2]; Table 4) [µM] | IC50 ([3]; Table 4) [µM] | SMILES
> 200 | 65.8 | > 200 | – | – | – | CCN(CC)CCNC(=O)c1ccc(Nc2cc(Cc3cc(OC)ccc3OC)n3ncnc3n2)cc1 [Example 128]
30.6 | 12.2 | > 200 | – | – | – | CN(C)S(=O)(=O)c1ccc(Nc2cc(-c3cccc(F)c3)n3ncnc3n2)cc1 [Example 129]
34.2 | 26.9 | > 200 | – | – | – | O=S(=O)(c1ccc(Nc2cc(-c3cccc(F)c3)n3ncnc3n2)cc1)N1CCOCC1 [Example 130]
69.4 | 26.3 | > 200 | – | – | – | CC(=O)Nc1cccc(Nc2cc(-c3cccc(F)c3)n3ncnc3n2)c1 [Example 131]
36.2 | > 200 | > 200 | – | – | – | O=C(O)c1ccc(Nc2cc(-c3cccc(F)c3)n3ncnc3n2)cc1 [Example 132]
2.25 | 8.84 | > 200 | – | – | – | CCOC(=O)Cc1ccc(Nc2cc(-c3cccc(F)c3)n3ncnc3n2)cc1 [Example 133]
8.09 | 23.2 | > 200 | – | – | – | NC(=O)c1cccc(Nc2cc(-c3cccc(F)c3)n3ncnc3n2)c1 [Example 134]
10.7 | 107 | > 200 | – | – | – | COc1ccc(C)cc1-c1cc(Nc2ccc(C(N)=O)cc2)nc2ncnn12 [Example 135]
92.9 | 13.7 | > 200 | – | – | – | NC(=O)c1ccc(Nc2cc(-c3ccc4ccccc4c3)n3ncnc3n2)cc1 [Example 136]
29.1 | 14.2 | > 200 | – | – | – | NC(=O)c1ccc(Nc2cc(-c3ccc4c(c3)OCO4)n3ncnc3n2)cc1 [Example 137]
4.21 | 26.1 | > 200 | – | – | – | Cc1ccc(-c2cc(Nc3ccc(C(N)=O)cc3)nc3ncnn23)cc1 [Example 138]
1.12 | 3.76 | > 200 | – | – | – | NC(=O)Cc1ccc(Nc2cc(-c3cccc(F)c3)n3ncnc3n2)cc1 [Example 139]
1.8 | 1 | > 200 | – | – | – | CCN(CC)CCNC(=O)c1ccc(Nc2cc(-c3ccc4c(c3)OCO4)n3ncnc3n2)cc1 [Example 140]
– | – | – | 1.73 | 9.86 | 23.1 | NC(=O)c1ccc(Nc2cc(-c3cccc(OCc4cccnc4)c3)n3ncnc3n2)cc1 [Example 145]
– | – | – | 7.6 | 20.8 | 5.51 | CCN(CC)CCOc1cccc(-c2cc(Nc3ccc(C(N)=O)cc3)nc3ncnn23)c1 [Example 146]
– | – | – | 6.13 | 5.21 | 71.7 | NCCCOc1cccc(-c2cc(Nc3ccc(C(N)=O)cc3)nc3ncnn23)c1 [Example 147]
– | – | – | 10.4 | 17 | 5.38 | NC(=O)c1ccc(Nc2cc(-c3cccc(OCC4CCCNC4)c3)n3ncnc3n2)cc1 (stereo not drawn) [Example 148]
– | – | – | 2.26 | 4.12 | 8.41 | NC(=O)c1ccc(Nc2cc(-c3cccc(OCc4ccccc4)c3)n3ncnc3n2)cc1 [Example 149]
– | – | – | 0.25 | 3 | 47.5 | NCCOc1cccc(-c2cc(Nc3ccc(C(N)=O)cc3)nc3ncnn23)c1 [Example 151]
– | – | – | 4.82 | 6.05 | 6.56 | NC(=O)COc1cccc(-c2cc(Nc3ccc(C(N)=O)cc3)nc3ncnn23)c1 [Example 157]
– | – | – | 0.81 | 1.4 | 7.89 | CCN(CC)CCNC(=O)c1ccc(Nc2cc(-c3cccc(OCCN)c3)n3ncnc3n2)cc1 [Example 165]
– | – | – | 1.2 | 2.7 | 2.58 | CCc1cc(OCCN)cc(-c2cc(Nc3ccc(C(N)=O)cc3)nc3ncnn23)c1 [Example 166]
